One compound from paper PMC3467217, “A Potent Class of GPR40 Full Agonists Engages the EnteroInsular Axis to Promote Glucose Control in Rodents” (PLoS ONE, 2012) can be followed below.

One data set addresses T1, GPR43 (FFAR2) (Homo sapiens, UniProt O15552).
T1 construct: expressed in transfected cells
The data set is described as follows: GPR43 aequorin assay. It is filed as cell-based. To be noted: up to 10 µM. An excerpt: (§1) (A) GPR41 (FFAR3) aequorin assay. GPR41 was force coupled to the calcium signaling pathway by co-transfecting the cells with Gqmyri5. (B) GPR43 (FFAR2) aequorin assay. The short chain fatty acid propionate acts as a natural agonist ligand for GPR41 and GPR43. (C) GPR120 aequorin assay. The unsaturated fatty acids α-LNN and DHA act as natural agonist ligands for GPR120. (D) PPAR-gamma luciferase assay using the thiazolidinedione rosiglitazone as a positive control. […] (TIF) Click here for additional data file.

The target of another data set is T2, GPR120 (Homo sapiens, UniProt Q5NUL3).
T2 construct: expressed in transfected cells
T2 sequence (Q5NUL3 whole entry, species assumed): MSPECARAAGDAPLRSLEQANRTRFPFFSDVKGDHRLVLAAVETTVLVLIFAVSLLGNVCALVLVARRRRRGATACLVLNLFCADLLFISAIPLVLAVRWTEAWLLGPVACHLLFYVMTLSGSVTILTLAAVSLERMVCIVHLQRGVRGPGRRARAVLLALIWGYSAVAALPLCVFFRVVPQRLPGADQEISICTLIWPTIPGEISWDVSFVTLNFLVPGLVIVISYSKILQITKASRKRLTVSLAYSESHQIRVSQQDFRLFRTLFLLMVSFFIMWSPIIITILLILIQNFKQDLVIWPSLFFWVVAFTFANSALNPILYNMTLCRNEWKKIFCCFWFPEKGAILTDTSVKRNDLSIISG
Description: GPR120 aequorin assay. It is filed as cell-based. To be noted: weak activity.
Text: as §1

The next data set has as its target PPAR alpha (Homo sapiens, UniProt Q07869). The data set is described as follows: PPAR-alpha luciferase reporter assay. Type of data set: cell-based. To be noted: concentrations up to 10 µM.
The subject of data set [1] is mouse islets. The data set is described as follows: GSIS assay in mouse islets. Type of data set: cell-based. The conditions noted are these: 16.7 mM glucose. As for the experimental part:
(§2) Mouse islets were isolated and tested for stimulation of GSIS as described. Human islets were purchased from Prodo labs or were obtained from the National Institutes of Health and Juvenile Diabetes Research Foundation supported Islet Cell Resource Consortium (http://icr.coh.org). Islet inositol phosphate assays were performed on islets cells that had been dispersed with trypsin. 10,000 islet cells were plated/well of a 96-well plate and were loaded with ^3H-myo-inositol (0.5 µCi/well) in RPMI overnight prior to treatment. The next day, response to different stimuli was tested in HBSS containing 10 mM LiCl and 0.1% HSA (w/v) for 1 hour at 37°C. Accumulated ^3H-inositol phosphate was measured after capture to SPA beads. Islet perifusion experiments were performed on mouse islets loaded into a Brandel Suprafusion system. Twenty islets were size-matched and loaded per perifusion chamber. Islets were perifused in KRBH containing, sequentially, 3 mM glucose, then 3 mM glucose containing 10 µM drug, 16.7 mM glucose containing 10 µM drug and finally returned to 3 mM glucose containing 10 µM drug. Insulin was measured using an insulin ELISA kit (Alpco). Fetal rat intestinal cells were isolated from e19-day old fetuses of pregnant Sprague-Dawley rats. Briefly, fetal intestines were isolated and digested in HBSS buffer containing 0.5 mg/ml collagenase (Sigma), 0.5 mg/ml of hyaluronidase (Sigma) and 0.05 mg/ml of deoxyribonuclease I (Roche) for 30 minutes at 37°C. The digestion was quenched using HBSS containing 15% FBS. Fetal rat intestinal cells were washed and cultured overnight in DMEM containing 5% FBS in 96-well plates. To test for secretion of GLP-1 and GIP in response to treatments, we incubated cells for 1 hour with treatments in KRBH buffer containing 0.05% BSA (w/v). GLP-1 and GIP1 secreted into the media was measured using ELISA kits specific for GLP-1 (Linco) or GIP (Millipore).

In data set [2] the test system is mouse islets. Description: Mouse islet perifusion assay. Type of data set: cell-based. To be noted: 10 µM compound. As for the experimental part:
as §2

In data set [3] the test system is islets isolated from GPR40 knockout mice. Description: GSIS assay with islets from GPR40 knock-out mice. It is filed as cell-based, mouse. As for the experimental part:
as §2

The test system of data set [4] is fetal rat intestinal cells. The data set is described as follows: GLP-1 secretion assay with fetal rat intestinal cells. To be noted: 1 hour. Type of data set: cell-based. An excerpt: (§3) Increased GLP-1 and GIP would be expected to have additional benefits in type 2 diabetics. […] We tested for potential effects on incretin secretion in vitro by using cells isolated from fetal rat intestines.
Mouse islets were isolated and tested for stimulation of GSIS as described. Human islets were purchased from Prodo labs or were obtained from the National Institutes of Health and Juvenile Diabetes Research Foundation supported Islet Cell Resource Consortium (http://icr.coh.org). Islet inositol phosphate assays were performed on islets cells that had been dispersed with trypsin. 10,000 islet cells were plated/well of a 96-well plate and were loaded with ^3H-myo-inositol (0.5 µCi/well) in RPMI overnight prior to treatment. The next day, response to different stimuli was tested in HBSS containing 10 mM LiCl and 0.1% HSA (w/v) for 1 hour at 37°C. Accumulated ^3H-inositol phosphate was measured after capture to SPA beads. Islet perifusion experiments were performed on mouse islets loaded into a Brandel Suprafusion system. Twenty islets were size-matched and loaded per perifusion chamber. […] Insulin was measured using an insulin ELISA kit (Alpco). […] GLP-1 and GIP1 secreted into the media was measured using ELISA kits specific for GLP-1 (Linco) or GIP (Millipore).

Another data set deals with GLUTag cells. Description: Inositol phosphate accumulation assay in GLUTag enteroendocrine L-cell line. It is filed as cell-based, mouse. As for the experimental part:
as §3
(§4) GPR40 aequorin, plasmid titration, and inositol phosphate assays were performed as described. For aequorin assays, in addition to transient transfection of GPR40 into CHO cells, a CHO cell line stably expressing both GPR40 and aequorin was generated. GLUTag cells were obtained under a license from Dr. Daniel Drucker, University of Toronto. Competition binding experiments were performed using membranes prepared from A9_GPR40 cells. […] Competition binding assays were carried out in 20 mM Hepes pH 7.5, 5 mM MgCl2, 100 mM NaCl and 0.1% (w/v) free fatty acid BSA and bound radioligand was collected on 96-well GF/C filter plates.

The nature of data set [5]: Unbound plasma drug concentration in HF/STZ mice. It is filed as in vivo. To be noted: C57BL/6j, mouse, 100 mg/kg oral, 1-hour post drug administration, by MS, read-out: free drug level in plasma.
The next data set deals with mouse GPR40 (Mus musculus, UniProt Q76JU9). Description: Mouse GPR40 inositol phosphate accumulation assay. It is filed as cell-based. As for the experimental part:
as §4

In a further data set the test system is HF/STZ mice. The data set is described as follows: Single oral dose without glucose challenge in HF/STZ mice: GLP-1, insulin, glucose, GIP. Type of data set: in vivo, mouse. The conditions noted are these: HF/STZ mice, single oral dose. As for the experimental part: The increase in insulin secretion by GPR40 agonists is due to direct stimulation of GPR40 receptors on pancreatic β-cells, but may also be derived from stimulation of the gut peptides GLP-1 and GIP, which subsequently act on the GLP-1 and GIP G protein-coupled receptors found on pancreatic β-cells. […] No glucose challenge was performed in order to isolate the effects of the compounds alone.
(§5) All procedures on animals were approved by the Amgen San Francisco Institutional Animal Care and Use Committee (approved protocols #11–04 and #2007–00106). The Amgen San Francisco vivarium is an AAALAC accredited facility. Animals were housed under a 12-h light, 12-h dark cycle (lights-on 0600 h and lights-off 1800 h) and were allowed ad libidum access to chow and water. The HF/STZ mice were established as previously described. Briefly, C57BL/6j mice (Jackson labs) at 4 weeks of age were fed a high-fat diet (BioServ S1850, 35% fat) for 3-weeks and then injected with 95 mg/kg streptozotocin (Sigma) ip to induce beta cell dysfunction. The animals continued on the same high fat diet for 3–6 additional weeks. Animals were then randomized into treatment groups based on fasting blood glucose and insulin measures. NONcNZO10/LtJ (RCS10) male mice (Jackson labs) were used at 12-weeks of age and randomized for treatment based on fasting glucose levels. For OGTT experiments, drugs were formulated in 1% HPMC, 10% HPbCD, 1% Tween-80 and dosed via oral gavage. Glucose was administered at 2 g/kg 1-hour post drug dose by oral gavage.

The next data set deals with NONcNZO10/LtJ mice. The data set is described as follows: OGTT in NONcNZO10/LtJ type 2 diabetic mice. It is filed as in vivo, mouse. As for the experimental part: NONcNZO10/LtJ mice retain an intact leptin pathway but contain polygenic defects contributing to moderate and mature onset obesity and diabetes, [31].
as §5
For all glucose tolerance tests, glucose and insulin measurements were taken from tail vein samples at various time-points. Blood glucose values were measured on an Accu-Chek glucometer (Roche Diagnostics), while insulin levels were determined using an ELISA (Alpco).

Sequence of mouse GPR40 (Q76JU9 whole entry): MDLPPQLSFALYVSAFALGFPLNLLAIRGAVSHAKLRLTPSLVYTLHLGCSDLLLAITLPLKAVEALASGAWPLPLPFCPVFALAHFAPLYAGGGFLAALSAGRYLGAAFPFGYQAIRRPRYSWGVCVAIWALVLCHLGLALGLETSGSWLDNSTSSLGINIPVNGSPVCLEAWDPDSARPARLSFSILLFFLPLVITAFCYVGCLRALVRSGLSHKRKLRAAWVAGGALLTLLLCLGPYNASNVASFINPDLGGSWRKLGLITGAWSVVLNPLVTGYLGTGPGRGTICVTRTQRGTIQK
T1 sequence (O15552 whole entry, species assumed): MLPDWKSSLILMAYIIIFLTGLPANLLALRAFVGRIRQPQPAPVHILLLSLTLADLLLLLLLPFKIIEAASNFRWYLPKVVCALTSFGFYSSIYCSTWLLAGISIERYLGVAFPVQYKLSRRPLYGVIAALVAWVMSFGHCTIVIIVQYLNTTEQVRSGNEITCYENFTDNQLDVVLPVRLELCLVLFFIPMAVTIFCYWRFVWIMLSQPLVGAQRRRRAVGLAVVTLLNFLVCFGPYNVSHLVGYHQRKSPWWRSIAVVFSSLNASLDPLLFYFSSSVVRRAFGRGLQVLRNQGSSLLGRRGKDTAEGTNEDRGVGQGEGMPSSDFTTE
Sequence of PPAR alpha (Q07869 whole entry, species assumed): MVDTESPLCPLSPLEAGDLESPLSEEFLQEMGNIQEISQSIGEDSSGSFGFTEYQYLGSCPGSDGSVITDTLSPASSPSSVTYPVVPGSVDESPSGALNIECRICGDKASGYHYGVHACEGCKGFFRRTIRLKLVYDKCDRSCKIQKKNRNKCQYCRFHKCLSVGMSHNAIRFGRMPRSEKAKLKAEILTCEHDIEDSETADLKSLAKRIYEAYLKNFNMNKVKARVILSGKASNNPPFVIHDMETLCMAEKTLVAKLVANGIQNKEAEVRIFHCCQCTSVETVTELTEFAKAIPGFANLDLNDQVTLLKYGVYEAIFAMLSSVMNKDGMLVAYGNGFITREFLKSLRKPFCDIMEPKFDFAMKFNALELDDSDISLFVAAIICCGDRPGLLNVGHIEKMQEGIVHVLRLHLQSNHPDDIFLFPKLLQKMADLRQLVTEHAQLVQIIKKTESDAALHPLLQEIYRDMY

Turning to `COc1ccc(F)c(-c2ccc(COc3cccc([C@@H](CC(=O)O)C4CC4)c3)cc2C2=CCCC2(C)C)c1` [AM-1638], the “activation of GPR43 (FFAR2)” value on GPR43 (FFAR2) is reported as “did not activate”. The EC50 at GPR120 is ~5000 nM; in the data set on mouse islets [1] (read-out: EC50 for potentiation of insulin secretion), 990 ± 150 nM; at mouse GPR40, 12.9 ± 1.4 nM. Besides, the “activation of PPAR alpha” value at PPAR alpha is “did not activate”. For the same compound, the “increase of insulin secretion, fold from that of AMG 837” value with mouse islets [1] is 3–4 fold. In the data set on mouse islets [2] (3 mM glucose), the “insulin stimulation compared to vehicle control” value is reported as “neither AMG 837 nor AM-1638 stimulated insulin”. The insulin secretion result in the data set on mouse islets [2] (16.7 mM glucose) is “increased both first and second phase insulin secretion”. In addition, in data set [3], the “GSIS response of GPR40 knockout islets” value is listed as “did not respond”. Also, the “GLP-1 release in vitro” value in [4] was “could stimulate GLP-1 release”. Moreover, the “inositol phosphate accumulation, fold increase compared to AMG 837” value in the data set with GLUTag cells was 3–4 fold. For the same compound, the concentration at 1 h in data set [5] worked out at 363 ± 48 nM. In the data set on HF/STZ mice, the GIP secretion result was “stimulated secretion of GIP”. Moreover, in the data set with HF/STZ mice (no glucose challenge), the blood glucose levels entry is recorded as “stabilized blood glucose levels”. For the same compound, the “plasma GLP-1 and insulin levels” value in the data set on HF/STZ mice (no glucose challenge, compared with AMG 837) is “markedly greater increase”. Also, the “GIP levels vs vehicle” value in the data set on NONcNZO10/LtJ mice (60 mg/kg, 15 minutes after glucose challenge) is recorded as “did not reach statistical significance”. Besides, the “insulin and GLP-1 levels 15 minutes after glucose challenge” value in the data set with NONcNZO10/LtJ mice (60 mg/kg, vs vehicle and baseline) is reported as “significantly increased”. Besides, the “Glucose AUC change as printed in figure 5B” value with NONcNZO10/LtJ mice (OGTT, 60mg/kg) was -26%. Further, the “Glucose AUC reduction compared to vehicle” value in the data set on NONcNZO10/LtJ mice (OGTT, single 60 mg/kg oral dose) is on record as 26%. For the same compound, the “glucose excursions during OGTT” value with NONcNZO10/LtJ mice (single 60 mg/kg oral dose) was “almost complete suppression”.
